Key:
SeCamS = tested on: T1, SeCamS; test: GC-MS of hexane-extracted monoterpene products; assay type: biochemical, Solanum elaeagnifolium; details: 20 mM MOPS pH 7.0, 20 mM MgCl2, 0.02 mM MnCl2, 30 °C, 1 h; read-out: KM^app
T1 construct: 6xHis-tagged, E. coli BL21(DE3), Ni-NTA purified
Text: GC-MS of hexane-extracted monoterpene products on SeCamS

SpSabS = biological target: T2, SpSabS (Salvia pomifera, UniProt A6XH06); test: GC-MS product analysis in vitro; assay type: biochemical; details: 20 mM MOPS pH 7.0, 20 mM MgCl2, 0.02 mM MnCl2, 30 °C, 1 h
T2 construct: gene SabS1; 6xHis-tagged, E. coli BL21(DE3), Ni-NTA purified
T2 sequence (A6XH06 29-581): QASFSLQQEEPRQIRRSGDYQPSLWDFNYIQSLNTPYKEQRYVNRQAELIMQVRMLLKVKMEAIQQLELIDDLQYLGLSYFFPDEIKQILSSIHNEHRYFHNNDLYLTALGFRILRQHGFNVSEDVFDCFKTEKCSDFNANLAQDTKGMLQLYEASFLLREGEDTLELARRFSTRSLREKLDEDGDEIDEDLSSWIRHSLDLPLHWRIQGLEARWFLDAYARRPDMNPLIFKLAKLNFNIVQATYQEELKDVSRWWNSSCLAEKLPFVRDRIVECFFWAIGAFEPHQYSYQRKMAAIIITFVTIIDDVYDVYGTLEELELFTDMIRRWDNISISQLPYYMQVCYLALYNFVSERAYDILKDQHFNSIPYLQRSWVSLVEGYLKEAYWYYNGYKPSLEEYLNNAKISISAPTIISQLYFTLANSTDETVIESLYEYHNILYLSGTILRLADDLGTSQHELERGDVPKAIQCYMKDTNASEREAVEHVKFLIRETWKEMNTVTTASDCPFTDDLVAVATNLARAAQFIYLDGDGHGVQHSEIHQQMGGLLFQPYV

PtPinS = biological target: T3, PtPinS (Pinus taeda, UniProt Q84KL3); test: GC-MS product analysis in vitro; assay type: biochemical; details: 20 mM MOPS pH 7.0, 20 mM MgCl2, 0.02 mM MnCl2, 30 °C, 1 h
T3 construct: gene PT30; lacking the transit peptide, 6xHis-tagged, E. coli BL21(DE3), Ni-NTA purified
T3 sequence (Q84KL3 49-628): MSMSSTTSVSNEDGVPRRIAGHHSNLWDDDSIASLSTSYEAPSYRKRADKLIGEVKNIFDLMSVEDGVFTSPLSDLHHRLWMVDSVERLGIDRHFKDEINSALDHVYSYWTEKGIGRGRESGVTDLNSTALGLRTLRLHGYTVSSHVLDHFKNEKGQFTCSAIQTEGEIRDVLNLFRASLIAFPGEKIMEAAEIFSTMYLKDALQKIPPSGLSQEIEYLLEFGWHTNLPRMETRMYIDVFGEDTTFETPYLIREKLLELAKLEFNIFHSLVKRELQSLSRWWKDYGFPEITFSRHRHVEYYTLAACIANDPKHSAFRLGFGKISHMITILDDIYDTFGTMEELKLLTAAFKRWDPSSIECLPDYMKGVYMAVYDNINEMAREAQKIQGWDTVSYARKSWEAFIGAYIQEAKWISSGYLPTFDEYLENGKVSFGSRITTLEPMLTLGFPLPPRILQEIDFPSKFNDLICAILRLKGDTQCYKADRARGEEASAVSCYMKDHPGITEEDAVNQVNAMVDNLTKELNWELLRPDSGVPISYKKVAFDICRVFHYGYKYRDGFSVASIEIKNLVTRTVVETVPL

| Km (SeCamS) [µM] | SMILES | GC-MS product analysis in vitro (SpSabS) | GC-MS product analysis in vitro (PtPinS) |
| --- | --- | --- | --- |
| 18.6 ± 2.77 | CC(C)=CCC/C(C)=C/COP(=O)(O)OP(=O)(O)O [GPP] | – | – |
| 107 ± 12.5 | CC(C)=CCC/C(C)=C\COP(=O)(O)OP(=O)(O)O [NPP] | able to utilize NPP in in vitro assays with bacterially expressed enzymes | able to utilize NPP in in vitro assays with bacterially expressed enzymes |

— PMC6707142, “Orthogonal monoterpenoid biosynthesis in yeast constructed on an isomeric substrate” (Nature Communications, 2019)
